This note sets out measurements from patent EP4623908A1, “USE OF (-)-EPIGALLOCATECHIN GALLATE COMPOUND” (CF Pharmtech, Inc., priority 2022, dated 2024).

Data set [1] in a line: Drug concentration in rat plasma and lungs after tracheal nebulization and oral gavage (Example 2). The note with it: for Cmax / AUC(0-t): plasma; for AUC(0-t): read-out: Plasma AUC0-t. In kind it is in vivo, rats. As to the method: As shown in Example 1, after inhalation (such as tracheal nebulization) administration of 1.6 mg/kg EGCG and oral gavage administration of 60 mg/kg EGCG, the AUC0-t in rat plasma were similar. Based on this, this example investigates the changes in drug concentration in rat plasma and lungs over time after a single lower dose of tracheal nebulization (0.8 mg/kg) compared to oral gavage (60 mg/kg) of EGCG. Both the tracheal nebulization and oral gavage groups consist of 5 rats each.
2.1 Blood Sampling Method: Blood was taken via femoral artery. Samples were taken at 30 minutes, 2 hours, 4 hours, and 6 hours post-administration (4 sampling points). After blood collection, 0.9 wt% physiological saline was used to lavage the lungs twice, then the entire lung was removed, dried with filter paper, and stored at -20°C until further analysis.
2.2 Plasma Sample Processing Method: 1 mL of plasma was mixed with 3 mL of ethyl acetate solution, vortexed, centrifuged, and the supernatant was evaporated to dryness. The residue was reconstituted with a reconstitution solution, vortexed, and 100 µL was used for analysis of plasma drug concentration.
2.3 Lung Tissue Sample Processing Method: Lung tissue samples were weighed, and 3 times the volume of physiological saline (w:v) was added to homogenize. 1 mL of the homogenate was mixed with 3 mL of ethyl acetate solution, vortexed, centrifuged, and the supernatant was evaporated to dryness. The residue was reconstituted with a reconstitution solution, vortexed, and 100 µL was used for analysis of lung drug concentration.

Data set [2] is described as follows: Plasma pharmacokinetics in rats after tracheal nebulization, intravenous injection and oral gavage (Example 1). In kind it is in vivo, SD rats. The note with it: for AUC(0-t) / Cmax: male, Sprague-Dawley; for AUC(0-t) / Cmax / F: rat plasma. From the text:
Example 1: Plasma pharmacokinetics study in rats after administration of EGCG via tracheal nebulization, intravenous injection, and oral gavage.
Materials: EGCG, content > 98wt%.
Preparation of tracheal nebulization solution: Accurately weigh the EGCG compound and dissolve it in Solvent 1 to prepare a clear and transparent drug solution. Solvent 1 is composed of purified water, citric acid, and sodium citrate.
Preparation of intravenous injection and oral gavage solutions: Accurately weigh the EGCG compound and dissolve it in saline.
Animals: Clean-grade male SD rats, provided by Qinglongshan Animal Breeding Farm in Jiangning District, Nanjing City, with a body weight range of 160-200g.
Tracheal Nebulization (inh): Rats in each tracheal nebulization group were anesthetized with isoflurane and fixed in a restraint device. An anesthetic laryngoscope was used to press the animal's tongue root and expose the glottis. A micro liquid nebulizer needle (blunt tip) filled with a specific amount of EGCG solution, was gently inserted into the trachea. The drug was nebulized into the lungs, the needle was quickly withdrawn, and the rat was removed from the holder, with its head rotated left and right to ensure even distribution of the drug across the lung lobes. The nebulized inhalation doses were 1.6 mg/kg, 3.2 mg/kg, and 6.4 mg/kg, with 5 rats in each dose group.
Oral Gavage (po): The dosage for each rat was determined based on body weight. An appropriate size syringe and gavage tube were used to administer the drug orally. The dose was 60 mg/kg, with 5 rats.
Intravenous Injection (iv): EGCG was administered via tail vein injection. The dose was 3.2 mg/kg, with 5 rats in total.
Blood samples were collected from the experimental groups via the orbital venous plexus before administration (0 min) and at 5 min, 15 min, 30 min, 1 h, 2 h, 4 h, and 6 h after administration (8 sampling points in total), with approximately 50-100 µL of whole blood collected at each point.
After collection at the specified time points, blood samples were placed in heparinized tubes, centrifuged, and plasma was separated into centrifuge tubes, then stored at -70°C for subsequent analysis.
Mass spectrometry conditions: Determined using UPLC-MS/MS. Chromatographic conditions: Determined using. Pharmacokinetic parameters were calculated using the WinNonlin pharmacokinetic software with statistical moment methods for each animal.

Where [3] appears, read: inhaled, tracheal nebulization (inh.0.8mg/kg).
Setting [4] is: tracheal nebulization (inh.0.8mg/kg).
Setting [5] is: inhaled, tracheal nebulization (inh) 1.6 mg/kg.
Where [6] appears, read: inhaled, tracheal nebulization (inh) 3.2 mg/kg.
The mark [7] stands for this setting: inhaled, tracheal nebulization (inh) 6.4 mg/kg.
Setting [8] is: intravenous injection (iv) 3.2 mg/kg.

The term Cmax denotes the highest concentration seen after dosing.

SMILES strings stand for the structures.

On to `O=C(O[C@@H]1Cc2c(O)cc(O)cc2O[C@@H]1c1cc(O)c(O)c(O)c1)c1cc(O)c(O)c(O)c1` [EGCG, (-)-Epigallocatechin gallate], for which, in data set [1] (lung and plasma, inhaled, after inhalation 0.8 mg/kg, read-out: drug concentration in the lungs relative to that in plasma (higher)), the Kp is 100. Further, the “Lung AUC0-t” value is 115 ng·h/mL in data set [1] (oral gavage (po. 60mg/kg)) and 30891 ng·h/mL in data set [1] (setting [4]). For the same compound, the results for the “Lung Cmax” value in data set [1] (oral gavage (po. 60mg/kg)) and in data set [1] (setting [4]) were 34.5 ng/mL and 12720 ng/mL, respectively. Besides, the peak concentration (Cmax) in data set [1] (setting [3]) is 153 ng/mL; in data set [1] (oral gavage (po. 60mg/kg)), 46 ng/mL; in data set [2] (setting [5]) it was 298 ± 91.9 ng/mL; in data set [2] (setting [6]), 1120 ± 127 ng/mL; in data set [2] (setting [7]), 2020 ± 658 ng/mL; in data set [2] (setting [8]) it was 1920 ± 789 ng/mL. Moreover, in data set [2] (oral gavage (po) 60 mg/kg), the Cmax turned out to be 118 ± 73 ng/mL. Further, the AUC(0-t) came to 292 ng·h/mL in data set [1] (setting [3]); 136 ng·h/mL in data set [1] (oral gavage (po. 60mg/kg)); 409 ± 75.6 ng·h/mL in data set [2] (setting [5]); 1120 ± 220 ng·h/mL in data set [2] (setting [6]); 1860 ± 595 ng·h/mL in data set [2] (setting [7]); 1680 ± 614 ng·h/mL in data set [2] (setting [8]). In data set [2] (oral gavage (po) 60 mg/kg), this compound yielded an AUC(0-t) of 372 ± 167 ng·h/mL. In addition, the “dose ratio between oral gavage and inhalation when achieving the same plasma exposure level” value in data set [2] (po 60 mg/kg: inh 1.6 mg/kg, rat) was 37.5 times. Also, the F in data set [2] (oral gavage (po) 60 mg/kg) is 1.2±0.0%; in data set [2] (tracheal nebulization (inh) 1.6 mg/kg), 48.7±9.0%; in data set [2] (tracheal nebulization (inh) 3.2 mg/kg) it was 66.9±13.1%; in data set [2] (tracheal nebulization (inh) 6.4 mg/kg), 55.3±17.7%.
